Experimental data published in patent publication US20050261265A1, “MODULATING CELLULAR SENESCENCE BY AMPHIPHYSIN-1” (priority 2000, published 2005).
{FL} = fluorescein region

Columns and labels:
caveolin-1 [1] = assay: Immunostaining of caveolin-1 in old fibroblasts transfected with oligonucleotide; assay type: cell-based, human; details: old fibroblasts PDL 64; for expression of caveolin-1 in cell (immunostaining): with a lapse of treatment time, FIG. 19
Procedure: (§1) Old human fibroblasts (PDL 64) were placed onto 24 well-plate or dish containing DMEM without FBS and incubated in incubator (37° C., 5% CO2) for 12 hr. After incubation, 1-5 μg of 100 μM antisense oligonucleotides synthesized and Plus reagent (Gibco-BRL) were mixed with 500 μl of DMEM and subsequently reacted for 15 min. at room temperature, and the resulting mixture was well mixed with 500 μl of the mixture containing 12 μl of Lipofectamine (Gibco-BRL) and DMEM, followed by standing the mixture for 15 min. at room temperature in order to form liposome complex. The incubated cells were washed twice with DMEM (no serum) and treated with 1 ml of the liposome complex, followed by incubation for 3 hr at 37° C. To the transfected cells, 1-5 ml of DMEM containing 10% FBS was added and the incubation was subsequently carried out for 24 hr, after which the media was changed with DMEM containing 10% FBS. Following incubation for a given period, immunostaining and western blotting were carried out as follows:
The cells treated with antisense oligonucleotide were fixed with 0.5 ml of 4% paraformaldehyde for 20 min at room temperature and then permeabilized with 0.5 ml of 0.5% Triton X-100 in PBS for 10 min, followed by blocking with 2% BSA (in PBS). The cells were sequentially incubated with anti-caveolin-1 antibody (Transduction Laboratory) overnight at 4° C. and then rhodamine-conjugated secondary antibody (Santa Cruz) for 1 hr at room temperature. For the purpose of visualizing nucleus, DAPI (Molecular Probe) was also added. The observation was performed using confocal microscope (Biorad, #MRC1024).

Erk-1/2 = assay: Western blotting of Erk-1/2 activation upon EGF after oligonucleotide transfection; assay type: cell-based, human; details: old cells; 100 ng/ml EGF; FIG. 20
Procedure: Young cells (PDL less than 30), middle cells (PDL 35-45) and old cells (PDL more than 60) of Human fibroblasts or IMR-90 cells, respectively were stimulated with 100 ng/ml EGF (Gibco-BRL, human, recombinant). After stimulation, western blotting was performed as described in Example V. Monoclonal anti-phospho-Erk-1/2 antibody, polyclonal anti-Erk-1/2 antibody and polyclonal anti-EGFR antibody were purchased from Santa Cruz Biotechnology, Inc. As found in FIG. 13a, in both young and middle-aged cells, Erk-1/2 kinases were phosphorylated (activated) within 5 min, and the resulting activation was sustained for 15 min after EGF stimulation. However, the phosphorylation of Erk-1/2 kinase from old cells was not detected until 15 min had lapsed. The expression level of Erk kinase and EGFR was not changed by the increase of population doubling in Western blot (see FIG. 13b), despite the down-regulation of EGF signaling to Erk kinases.
The old and young fibroblasts were treated with antisense oligonucleotide as described in Example XVII. The EGF stimulation and western blotting were carried out as described in Example XI. FIG. 20 represents the results of this Example.

p-Erk-1/2 = assay: Immunostaining of p-Erk-1/2 translocation to nucleus; assay type: cell-based, human; details: old cells; EGF; FIG. 22
Procedure: To verify that Erk-1/2 kinase activated in Example XVIII is translocated into nucleus and regulate sequentially the expression of other genes, immunostaining was performed as follows: Young and old fibroblasts were treated with antisense oligonucleotide and EGF as Example XIII. The treated cells were sequentially incubated with anti-p-Erk (phosphorylated-Erk) antibody (New England Biotech) overnight at 4° C. and then FITC-conjugated secondary antibody (Santa Cruz) for 1 hr at room temperature. For the purpose of visualizing nucleus, DAPI (Molecular Probe) was also added. The image of p-Erk-1/2 localization was visualized using confocal microscope (Biorad, #MRC1024), which is found in FIGS. 21 and 22. In FIGS. 21 and 22, arrows indicate translocation of p-Erk-1/2 kinase into nucleus.

caveolin-1 [2] = assay: Western blotting of caveolin-1 in cells treated with oligonucleotides; assay type: cell-based, human; details: old fibroblasts PDL 64
Procedure: Analysis of caveolin expression, in young cells (PDL less than 30), middle cells (PDL 35-45) and old cells (PDL more than 60) of Human fibroblasts or IMR-90 cells, was performed by Western blotting as described in Example V. Monoclonal anti-caveolin-1 antibody, monoclonal anti-caveolin-2 antibody and monoclonal anti-caveolin-3 antibody were purchased from Transduction Laboratories.
as §1, with “follows: […]” for “follows:”

human fibroblasts = assay: Senescence-associated β-galactosidase activity staining; assay type: cell-based; details: for β-galactosidase activity shown from (days after treatment), entry of cellular senescence: fibroblasts PDL 16, 400 μM
Procedure: The fibroblasts subcultured in Exmaple I-1, PDL of which are 16, were placed in culture plate and were kept to arrest cell cycle to G1 phase in incubator (37° C., 5% CO2 and humidified) for a week. The cell cycle arrest was confirmed as follows: Following the fixation of the cells with cold ethanol, the cells were stained for 30 min. at room temperature using PI staining solution (containing 50 μg/ml of Rnase A and 50 μg/ml of propinium iodide in PBS). Thereafter, using FACS (fluorescence-activated cell sorter), the cell cycle was confirmed by observing DNA phenotype, i.e., 2n or 4n.
The fibroblasts arrested in G1 phase were treated with 400 μM H2O2 and then incubated for 3 hrs., followed by washing with 10 ml of PBS. Then, the cells were subcultured at a 1:4 ratio and under normal conditions for cell culure (37° C., 5% CO2 and humidified), cell culture was continuously performed. Following 7 days after the treatment, the cells were determined in terms of senescence using senescence-associated […] activity staining as described in Example III.
The fibroblasts subcultured in Exmaple I-1, PDL of which are 16, were placed in culture plate containing DMEM and were cultured in incubator (37° C., 5% CO2 and humidified) for 14 hrs. Thereafter, the fibroblasts were treated with 400 μM Hydroxyurea and then incubated continuously. The medium was renewed once per 3 days with the addition of fresh 400 μM Hydroxyurea. Following 14 days after the treatment, the cells were determined in terms of senescence using senescence-associated […] activity staining as described in Example III.
A senescence-associated […] activity staining (hereinafter referred to as “SA β-gal activity staining) was performed according to the method of Dimri et al. (Dimri G P et al., Proc. Natl. Acad. Sci., 92:9363(1995)): The semiconfluent fibroblasts were washed twice with 10 ml of PBS and fixed with 2% paraformaldehyde in PBS for 5 min. at room temperature. […]

caveolin-1 [3] = assay: Western blotting of young cells treated with demethylating agent; assay type: cell-based, human; details: young fibroblasts PDL 20; 1 μM; FIG. 23b
Procedure: (§2) The induction of cellular senescence was verified by SA β-gal activity staining as Example III. To investigate the expression of related proteins, the treated cells were harvested in different days and western blotting was performed as previously described. In western blotting, anti-p53 antibody, anti-p16 antibody, anti-caveolin-1 antibody and anti-actin antibody were purchased from Santa Cruz Biotechnology, Inc.

p16 = assay: as above; assay type: cell-based, human; details: young fibroblasts PDL 20; 1 μM; FIG. 23b
Procedure: as §2

[4] = tested on: receptor-mediated endocytosis; assay: Internalization of rhodamine-conjugated transferrin in artificially induced senescent cells (confocal microscopy); assay type: cell-based, human; details: 25 μg/ml rhodamine-conjugated transferrin, FIG. 4

Compound | cell morphology (caveolin-1 [1]) | expression of caveolin-1 in cell (immunostaining) (caveolin-1 [1]) | Erk-1/2 activation by EGF (Erk-1/2) | p-Erk-1/2 in nucleus (p-Erk-1/2) | β-galactosidase activity shown from (days after treatment), entry of cellular senescence (human fibroblasts) | function of receptor-mediated endocytosis (internalization of fluorescent transferrin) [4] | other results
5′-atgtctgggggc-3′ (sense ATGTCTGGGGGC; all phosphorothioate, 5' {FL}, sugars by position and methylation of C not given here) [sense oligonucleotide, sense oligonucleotide for the same region of caveolin-1 mRNA, control] | did not show such cell-morphology alteration | not changed | no alteration in Erk-1/2 activation | no p-Erk-1/2 in nucleus |  |  | 
5′-tttgcccccaga-3′ (antisense TTTGCCCCCAGA; all phosphorothioate, 5' {FL}, sugars by position and methylation of C not given here) [antisense oligonucleotide] | enlarged and spread morphology to smaller and spindle morphology | dramatically decreased | highly increased | vice versa |  |  | caveolin-1 band (western blotting) (caveolin-1 [2]): weaker band corresponding to caveolin-1
Nc1ncn([C@H]2C[C@H](O)[C@@H](CO)O2)c(=O)n1 [5-aza-deoxycytidine] |  |  |  |  |  |  | SA β-gal activity staining (induction of cellular senescence) (human fibroblasts; young fibroblasts PDL 20, 1 μM, treated for about 2 weeks, FIG. 23a): senescent cell-like phenomenon; expression of caveolin-1 (caveolin-1 [3]): increased; expression of p16 (p16): increased
OO [H2O2] |  |  |  |  | 10 days | reduced function of receptor-mediated endocytosis | 
NC(=O)NO [hydroxyurea, Hydroxyurea] |  |  |  |  | 14 to 20 days | reduced function of receptor-mediated endocytosis | 
